pIC50: −log10 of the molar value. “And” between values parts separate entries of the source, which are not always exact repeats. Identical values can stand only once. Residues, ends and D or L forms follow the SMILES beside them. *: point of attachment. Cbz = O=C(OCc1ccccc1)*
Columns and labels:
WT VCP/p97 ATPase = WT VCP/p97 ATPase (Homo sapiens, UniProt P55072); test: In vitro ATPase assay, WT VCP/p97; type: biochemical; conditions: 200 μM ATP, 8-dose titration
From the text: (§1) In order to test direct inhibition of VCP/p97 ATPase activity by these compounds, we performed in vitro ATPase assays of the five UPS and VCP/p97 perturbing compounds to evaluate their inhibitory activity against VCP/p97.

E578Q VCP/p97 ATPase = E578Q VCP/p97 ATPase (Homo sapiens, UniProt P55072, E578Q); test: In vitro ATPase assay, E578Q (D2 Walker B mutant, D1-active); type: biochemical; conditions: for pIC50: 200 μM ATP, 8-dose titration
E578Q VCP/p97 ATPase, sequence (P55072 whole entry E578Q): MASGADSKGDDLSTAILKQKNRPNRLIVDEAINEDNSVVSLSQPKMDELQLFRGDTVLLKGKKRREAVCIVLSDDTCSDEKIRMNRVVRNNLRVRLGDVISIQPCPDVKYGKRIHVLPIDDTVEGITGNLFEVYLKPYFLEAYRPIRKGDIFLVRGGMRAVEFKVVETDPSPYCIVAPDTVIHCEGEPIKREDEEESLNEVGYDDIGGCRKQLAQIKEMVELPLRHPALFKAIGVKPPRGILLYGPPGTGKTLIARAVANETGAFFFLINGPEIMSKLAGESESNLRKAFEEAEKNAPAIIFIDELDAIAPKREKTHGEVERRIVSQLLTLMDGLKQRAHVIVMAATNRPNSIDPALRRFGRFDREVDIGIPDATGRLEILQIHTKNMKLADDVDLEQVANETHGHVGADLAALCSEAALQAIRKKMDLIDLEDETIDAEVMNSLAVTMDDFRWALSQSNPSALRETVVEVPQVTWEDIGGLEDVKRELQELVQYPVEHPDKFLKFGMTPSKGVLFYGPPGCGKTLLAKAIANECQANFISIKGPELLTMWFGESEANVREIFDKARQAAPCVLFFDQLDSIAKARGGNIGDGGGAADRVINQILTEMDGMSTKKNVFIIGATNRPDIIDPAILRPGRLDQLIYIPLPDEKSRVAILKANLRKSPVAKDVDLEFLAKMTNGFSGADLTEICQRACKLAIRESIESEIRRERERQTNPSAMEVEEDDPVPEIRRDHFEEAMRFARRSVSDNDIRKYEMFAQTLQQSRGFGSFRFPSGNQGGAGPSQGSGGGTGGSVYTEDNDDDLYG
From the text: as §1

E305Q VCP/p97 ATPase = E305Q VCP/p97 ATPase (Homo sapiens, UniProt P55072, E305Q); test: In vitro ATPase assay, E305Q (D1 Walker B mutant, D2-active); type: biochemical; conditions: for pIC50: 200 μM ATP, 8-dose titration
E305Q VCP/p97 ATPase, sequence (P55072 whole entry E305Q): as the sequence (P55072 whole entry E578Q) above, with E305Q, Q578E counted along it
From the text: as §1

NSCLC cells = tested on: NSCLC cells; design: method as in PMID 27333030; conditions: sub-micromolar concentrations; cited from earlier work
tumor growth = conditions: 50 mg/kg, mice; cited from earlier work
[1] = cited from earlier work
[2] = tested on: UbG76V-GFP (p97-dependent substrate); test: UbG76V-GFP degradation assay (dual-reporter HeLa cell line); type: cell-based; conditions: 160 min, HeLa dual-reporter cells
Procedure: (§2) First, the activities of these compounds against VCP/p97 in a cell-based degradation assay[31] were evaluated. For this purpose, we used a dual-reporter system to monitor the ubiquitin-proteasome system (UPS) and VCP/p97 function in mammalian cells. This system comprises an ubiquitin fusion degradation (UFD) reporter Ub^G76V-GFP and the oxygen-dependent degradation domain of HIF1α fused to luciferase (ODD-Luc), a non-ERAD substrate for proteasomal degradation. Measurement of GFP and luciferase activity in response to a treatment allows to assess the effect on p97-dependent and p97-independent proteolysis.
(§3) A dual-reporter stable HeLa cell line was generated to monitor UPS function in mammalian cells. A ubiquitin fusion degradation (UFD) reporter Ub^G76V-GFP and an oxygen-dependent degradation domain of HIF1α fused to luciferase (ODD-Luc). […] Cells were seeded on 384-well plates (3000 cells/well) and grown for 18 h. Cells were treated with modified DMEM (without phenol red, folic acid, riboflavin, and vitamin B12) containing MG132 (4 μM) for 1 h and washed twice with pre-warmed PBS. […] Plates were imaged on the ImageXpress Micro microscope (Molecular Devices) after 160 min. Luciferase activity were measured by adding D-Luciferin (10 μl of 2.5 mg/mL in PBS) into each well containing 38 μl of medium and incubated at room temperature for 10 min. Use Synergy Neo (BioTek) to read Luciferase signal.

[3] = tested on: ODD-Luc (p97-independent proteasome substrate); test: ODD-Luc degradation assay (dual-reporter HeLa cell line); type: cell-based; conditions: HeLa dual-reporter cells
Procedure: as §2, §3

VCP = tested on: VCP; design: method as in PMID 23892893; conditions: read-out: Experimental IC50; cited from earlier work
[4] = design: method as in PMID 23245311; conditions: oral administration in mice; cited from earlier work

WT VCP/p97 ATPase, sequence (P55072 whole entry): as the sequence (P55072 whole entry E578Q) above, with Q578E counted along it

pIC50 (WT VCP/p97 ATPase) | pIC50 (E578Q VCP/p97 ATPase) | pIC50 (E305Q VCP/p97 ATPase) | pIC50 ([2]; Homo sapiens) | pIC50 ([3]; Homo sapiens) | Compound | other results
4.60 | < 4.52 | < 4.52 |  |  | COc1ccc(CCN2CCC(Nc3nc4ccccc4n3Cc3ccc(F)cc3)CC2)cc1 [Astemizole] | sensitization of NSCLC cells to chemotherapy (NSCLC cells): sensitized NSCLC cells to chemotherapy; tumor growth inhibition (tumor growth): sufficient to inhibit tumor growth
4.92 | 5.10 and 5.09 | 5.10 |  |  | Clc1ccccc1C(c1ccccc1)(c1ccccc1)n1ccnc1 [Clotrimazole] | water solubility [1]: poor
5.52 | 4.96 | 5.26 |  |  | c1ccc(CNc2nc(NCc3ccccc3)c3ccccc3n2)cc1 [DBeQ] | IC50 increase against the D2 mutant relative to wild-type VCP/p97 (E578Q VCP/p97 ATPase; E578Q vs WT): 3.7 fold; IC50 increase against the D1 mutant relative to wild-type VCP/p97 (E305Q VCP/p97 ATPase; E305Q vs WT): 1.8 fold
 |  |  |  |  | CC(C)(C)c1ccc(C(=O)CCCN2CCC(OC(c3ccccc3)c3ccccc3)CC2)cc1 [Ebastine] | sensitization of NSCLC cells to chemotherapy (NSCLC cells): sensitized NSCLC cells to chemotherapy
 |  |  | < 4.40 | < 4.40 | CC#CCC(C)[C@H](O)/C=C/[C@@H]1[C@H]2C/C(=C/CCCC(=O)O)C[C@H]2C[C@H]1O (stereo partly drawn) [Iloprost] | 
 |  |  | < 4.40 | < 4.40 | O=C(Nc1ccc([N+](=O)[O-])cc1Cl)c1cc(Cl)ccc1O [Niclosamide] | 
< 4.52 | < 4.52 | < 4.52 | 4.97 | 4.68 | CC(C)(C)NC(=O)[C@@H]1C[C@@H]2CCCC[C@@H]2CN1C[C@@H](O)[C@H](Cc1ccccc1)NC(=O)[C@H](CC(N)=O)NC(=O)c1ccc2ccccc2n1 [Saquinavir] | 
 |  |  |  |  | NMS-249 | pIC50 (VCP): 6.54
 |  |  |  |  | NMS-862 | pIC50 (VCP): 5.58

Compound | pIC50 (WT VCP/p97 ATPase) | pIC50 (E578Q VCP/p97 ATPase) | pIC50 (E305Q VCP/p97 ATPase) | pIC50 ([2]; Homo sapiens) | pIC50 ([3]; Homo sapiens) | other results
CC(C)C[C@@H](C=O)NC(=O)[C@H](CC(C)C)NC(=O)[C@H](CC(C)C)NC(=O)OCc1ccccc1 [MG132] (Cbz-Leu-Leu-Leu-aldehyde) |  |  |  | 5.92 | 5.36 | 
Cc1cc(OCc2nnc(SC3CCCC3)n2-c2cccnc2)ccc1-c1ccc(S(C)(=O)=O)cc1 [NMS-873] |  |  |  |  | < 4.40 | pIC50 [2]: 5.85; pIC50 (VCP): 7.52; bioavailability [4]: modest; systemic exposure [4]: modest
Ivermectin | < 4.52 | < 4.52 | < 4.52 |  |  | pIC50 [2]: 5.01; pIC50 [3]: < 4.40; IC50 WT VCP/p97 ATPase activity (WT VCP/p97 ATPase): did not show activity

Source: paper PMC5359624, “A structure- and chemical genomics-based approach for repositioning of drugs against VCP/p97 ATPase” (Scientific Reports, 2017)
